Measurements reported in patent US20230365542A1, “Selective Agonists of 5-HT2A Receptor and Methods of Use” (Yale University, priority 2020, published 2023).
Read-outs that look alike come from different tables or passages of the source.

Tests used:
[1] = target: T1, 5-HT2BR (Homo sapiens, UniProt P41595); assay: 5-HT2BR binding affinity (Ki), Table 8
T1 construct: expressed in transfected cells; host or cells: Flp-In 293 T-Rex (tetracycline inducible)

[2] = target: T1, 5-HT2BR; assay: Calcium flux assay (FLIPR, Fluo-4), 5-HT2BR stable cell line; format: cell-based; details: for 5-HT2BR Rmax ± S.E.M: value in parentheses
Method: Stable cell lines for 5-HT2AR, 5-HT2BR and 5-HT2CR generated using the Flp-In 293 T-Rex Tetracycline inducible system (Invitrogen). Tetracycline-induced cells were seeded in 384-well poly-L-lysine plates at a density of 10,000 cells/well in DMEM containing 1% dialyzed FBS at least 16-24 hr before the calcium flux assay. On the day of the assay, the cells were incubated (20 ul/well) for 1 hr at 37° C. with Fluo-4 Direct dye (Invitrogen) reconstituted in FLIPR buffer (1×HBSS, 2.5 mM probenecid, and 20 mM HEPES, pH 7.4). After dye loading, cells were placed in a FLIPR^TETRA fluorescence imaging plate reader ([…]). Drug dilutions were prepared at 3× final concentration in drug buffer (1×HBSS, 20 mM HEPES, 0.1% BSA, 0.01% ascorbic acid, pH 7.4) and aliquoted into 384-well plates and placed in the FLIPR^TETRA for drug stimulation. The fluidics module and plate reader of the FLIPR^TETRA were programmed to read baseline fluorescence for 10s (1 read/s), then 10 ul of drug/well was added and read for 5 min (1 read/s). Fluorescence in each well was normalized to the average of the first 10 reads (i.e., baseline fluorescence). Then, the maximum-fold increase, which occurred within the first 60 s after drug addition, was determined and fold over baseline was plotted as a function of drug concentration. Data were normalized to % 5-HT stimulation and analyzed using “log(agonist) vs. response” in GraphPad Prism 9.0.

[3] = target: T2, 5-HT2AR (Homo sapiens, UniProt P28223); assay: 5-HT2AR binding affinity (Ki), Table 8
T2 construct: expressed in transfected cells; host or cells: Flp-In 293 T-Rex (tetracycline inducible)

[4] = target: T2, 5-HT2AR; assay: Calcium flux assay (FLIPR, Fluo-4), 5-HT2AR stable cell line; format: cell-based; details: for 5-HT2AR Rmax ± S.E.M: value in parentheses
Method: Stable cell lines for 5-HT2AR, 5-HT2BR and 5-HT2CR generated using the Flp-In 293 T-Rex Tetracycline inducible system (Invitrogen). Tetracycline-induced cells were seeded in 384-well poly-L-lysine plates at a density of 10,000 cells/well in DMEM containing 1% dialyzed FBS at least 16-24 hr before the calcium flux assay. On the day of the assay, the cells were incubated (20 ul/well) for 1 hr at 37° C. with Fluo-4 Direct dye (Invitrogen) reconstituted in FLIPR buffer (1×HBSS, 2.5 mM probenecid, and 20 mM HEPES, pH 7.4). After dye loading, cells were placed in a FLIPR^TETRA fluorescence imaging plate reader (Molecular Dynamics). Drug dilutions were prepared at 3× final concentration in drug buffer (1×HBSS, 20 mM HEPES, 0.1% BSA, 0.01% ascorbic acid, pH 7.4) and aliquoted into 384-well plates and placed in the FLIPR^TETRA for drug stimulation. The fluidics module and plate reader of the FLIPR^TETRA were programmed to read baseline fluorescence for 10s (1 read/s), then 10 ul of drug/well was added and read for 5 min (1 read/s). Fluorescence in each well was normalized to the average of the first 10 reads (i.e., baseline fluorescence). Then, the maximum-fold increase, which occurred within the first 60 s after drug addition, was determined and fold over baseline was plotted as a function of drug concentration. Data were normalized to % 5-HT stimulation and analyzed using “log(agonist) vs. response” in GraphPad Prism 9.0.

[5] = target: T3, 5-HT2CR (Homo sapiens, UniProt P28335); assay: 5-HT2CR binding affinity (Ki), Table 8; details: read-out: 5-HT2CR Ki
T3 sequence (P28335 33-458): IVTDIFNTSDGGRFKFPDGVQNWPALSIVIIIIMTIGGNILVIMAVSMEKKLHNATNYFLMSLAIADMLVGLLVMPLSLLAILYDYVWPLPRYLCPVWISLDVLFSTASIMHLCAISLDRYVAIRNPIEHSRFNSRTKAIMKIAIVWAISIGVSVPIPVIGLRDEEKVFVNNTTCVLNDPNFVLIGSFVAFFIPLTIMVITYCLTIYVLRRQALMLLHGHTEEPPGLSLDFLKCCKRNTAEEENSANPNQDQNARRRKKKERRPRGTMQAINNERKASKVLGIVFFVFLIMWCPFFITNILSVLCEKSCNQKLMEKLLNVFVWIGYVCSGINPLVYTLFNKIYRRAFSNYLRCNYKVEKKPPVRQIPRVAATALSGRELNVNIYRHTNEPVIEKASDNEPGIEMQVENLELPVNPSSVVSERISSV

[6] = bracketed value below Ki, read-out: 5-HT2BR pKi ± S.E.M (converted)
[7] = bracketed value below EC50, read-out: 5-HT2BR pEC50 ± S.E.M (converted)
[8] = bracketed value below EC50, read-out: 5-HT2AR pEC50 ± S.E.M (converted)

T2 sequence (P28223 whole entry): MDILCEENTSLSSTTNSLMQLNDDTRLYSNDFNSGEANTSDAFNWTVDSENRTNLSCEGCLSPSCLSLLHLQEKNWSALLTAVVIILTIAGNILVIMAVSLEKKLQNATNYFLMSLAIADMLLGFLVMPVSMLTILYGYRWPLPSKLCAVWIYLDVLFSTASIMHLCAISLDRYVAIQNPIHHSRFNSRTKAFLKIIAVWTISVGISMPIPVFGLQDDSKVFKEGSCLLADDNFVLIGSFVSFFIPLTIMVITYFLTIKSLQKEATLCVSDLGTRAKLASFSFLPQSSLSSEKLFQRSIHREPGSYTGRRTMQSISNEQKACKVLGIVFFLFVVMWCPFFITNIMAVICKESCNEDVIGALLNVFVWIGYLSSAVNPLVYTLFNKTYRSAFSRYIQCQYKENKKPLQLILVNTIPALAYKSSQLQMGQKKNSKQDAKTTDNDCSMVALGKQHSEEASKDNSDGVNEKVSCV
T1 sequence (P41595 whole entry): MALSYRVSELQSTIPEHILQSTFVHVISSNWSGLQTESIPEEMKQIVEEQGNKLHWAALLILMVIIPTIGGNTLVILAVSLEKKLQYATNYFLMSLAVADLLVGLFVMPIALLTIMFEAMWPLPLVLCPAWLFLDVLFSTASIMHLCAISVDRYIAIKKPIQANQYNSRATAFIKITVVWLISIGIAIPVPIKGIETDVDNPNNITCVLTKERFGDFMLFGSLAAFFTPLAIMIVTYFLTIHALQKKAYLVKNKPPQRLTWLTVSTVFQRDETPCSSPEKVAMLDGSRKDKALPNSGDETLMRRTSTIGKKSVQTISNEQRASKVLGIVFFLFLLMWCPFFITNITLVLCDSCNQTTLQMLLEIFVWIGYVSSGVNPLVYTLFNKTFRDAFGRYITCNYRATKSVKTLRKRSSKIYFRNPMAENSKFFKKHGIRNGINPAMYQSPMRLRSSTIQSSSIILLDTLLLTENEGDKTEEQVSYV

| Compound | Ki ([1]; read-out: 5-HT2BR Ki) [nM] | EC50 ([2]; read-out: 5-HT2BR EC50) [nM] | 5-HT2BR Rmax ± S.E.M [2] | Ki ([3]; read-out: 5-HT2AR Ki) [nM] | 5-HT2AR EC50 [4] | 5-HT2BR EC50 [2] | EC50 ([4]; read-out: 5-HT2AR EC50) [nM] | Ki [1, 6] [nM] | EC50 [2, 7] [nM] | Ki [5] [nM] | 5-HT2AR Rmax ± S.E.M [4] | EC50 [4, 8] [nM] | Ki ([3]; bracketed value below Ki, read-out: 5-HT2AR pKi ± S.E.M (converted)) [nM] |
| --- | --- | --- | --- | --- | --- | --- | --- | --- | --- | --- | --- | --- | --- |
| CC1C=C(c2cnn(C)c2)CN(CC2(C)COC2)C1 (racemic) [Compound 1, 3-Methyl-5-(1-methyl-1H-pyrazol-4-yl)-1-((3-methyloxetan-3-yl)methyl)-1,2,3,6-tetrahydropyridine] | 3880 | 1940 | 48.9% |  |  |  |  |  |  |  |  |  |  |
| CCc1cncn1CCN1CC(c2cccn2C)=CC(C)C1 (racemic) [Compound 2, 1-(2-(5-Ethyl-1H-imidazol-1-yl)ethyl)-3-methyl-5-(1-methyl-1H-pyrrol-2-yl)-1,2,3,6-tetrahydropyridine] | 2670 | 2980 | 56.3% | 6230 | antagonist |  |  |  |  |  |  |  |  |
| CCCCCN1CC(c2cnn(C)c2)=CC(C)C1 (racemic) [Compound 3, 3-Methyl-5-(1-methyl-1H-pyrazol-4-yl)-1-pentyl-1,2,3,6-tetrahydropyridine] | 1480 |  |  |  |  | antagonist | > 10000 |  |  |  |  |  |  |
| Cc1cncc(C2=CC(C)CN(CC3(O)COC3)C2)c1 (racemic) [Compound 4, 3-((5,5′-Dimethyl-5,6-dihydro-[3,3′-bipyridin]-1(2H)-yl)methyl)oxetan-3-ol] | 670 |  |  |  |  | antagonist |  |  |  |  |  |  |  |
| Cc1cncc(C2=C[C@H](C)CN(CC3(O)COC3)C2)c1 (stereo in doubt) [Compound 6, 3-((5,5′-Dimethyl-5,6-dihydro-[3,3′-bipyridin]-1(2H)-yl)methyl)oxetan-3-ol] |  | 120 | (16.0% | > 10000 |  |  |  | 245 | 115 | > 10000 |  |  |  |
| CCCCN1CC(c2cncc(C)c2)=C[C@H](C)C1 (stereo in doubt) [Compound 14, 1-Butyl-5,5′-dimethyl-1,2,5,6-tetrahydro-3,3′-bipyridine] | 30 |  | (71.7% | > 10000 |  |  | 1830 | 30.9 | 28.2 | > 10000 | (57.3% |  |  |
| C[C@@H]1C=C(c2cncc(Cl)c2)CN(C)C1 (stereo in doubt) [Compound 17, 5′-chloro-1,5-dimethyl-1,2,5,6-tetrahydro-3,3′-bipyridine] |  |  | (42.1% | 2100 |  |  |  | 30.2 | 26.9 | > 10000 | (14.9% | 347 |  |
| C[C@H]1C=C(c2cncc(Cl)c2)CN(C)C1 (stereo in doubt) [Compound 18, 5′-chloro-1,5-dimethyl-1,2,5,6-tetrahydro-3,3′-bipyridine] |  |  |  | 3210 |  | antagonist | 870 | 138 |  | > 10000 | (13.7% |  | 3160 |
| Cc1cncc(C2=C[C@@H](C)CN(CC3(O)COC3)C2)c1 [Compound 5, 3-((5,5′-Dimethyl-5,6-dihydro-[3,3′-bipyridin]-1(2H)-yl)methyl)oxetan-3-ol] |  |  |  | > 10000 |  | antagonist |  | 3240 |  | > 10000 |  |  |  |
| C[C@@H]1C=C(c2cncc(Cl)c2)CN(CC2(O)COC2)C1 [Compound 7, 3-((5′-Chloro-5-methyl-5,6-dihydro-[3,3′-bipyridin]-1(2H)-yl)methyl)oxetan-3-ol] | 960 |  |  | > 10000 |  | antagonist | > 10000 |  |  | > 10000 |  |  |  |
| C[C@H]1C=C(c2cncc(Cl)c2)CN(CC2(O)COC2)C1 [Compound 8, 3-((5′-Chloro-5-methyl-5,6-dihydro-[3,3′-bipyridin]-1(2H)-yl)methyl)oxetan-3-ol] |  |  | (20.4% | > 10000 |  |  |  | 79.4 | 126 | > 10000 |  |  |  |
| CCCCCN1CC(c2cncc(Cl)c2)=C[C@@H](C)C1 [Compound 9, 5′-chloro-5-methyl-1-pentyl-1,2,5,6-tetrahydro-3,3′-bipyridine] | 560 |  |  | > 10000 |  | antagonist | 7630 | 550 |  | > 10000 | (40.2% | 7760 |  |
| CCCCN1CC(c2cncc(Cl)c2)=C[C@@H](C)C1 [Compound 11, 1-butyl-5′-chloro-5-methyl-1,2,5,6-tetrahydro-3,3′-bipyridine] |  |  |  | > 10000 |  | antagonist | 4240 | 372 |  | > 10000 | (25.0% |  |  |
| CCCCN1CC(c2cncc(Cl)c2)=C[C@H](C)C1 [Compound 12, 1-butyl-5′-chloro-5-methyl-1,2,5,6-tetrahydro-3,3′-bipyridine] |  |  | (69.6% | 4540 |  |  |  | 7.08 | 22.9 | > 10000 | (53.0% | 427 |  |
| CCCCN1CC(c2cncc(C)c2)=C[C@@H](C)C1 [Compound 13, 1-Butyl-5,5′-dimethyl-1,2,5,6-tetrahydro-3,3′-bipyridine] | 580 |  |  | > 10000 |  | antagonist | > 10000 |  |  | > 10000 |  |  |  |
| CCCN1CC(c2cncc(Cl)c2)=C[C@@H](C)C1 [Compound 15, 5′-Chloro-5-methyl-1-propyl-1,2,5,6-tetrahydro-3,3′-bipyridine] |  | 130 | (50.9% | > 10000 |  |  | 5000 | 148 | 123 | > 10000 | (42.1% |  |  |
| C[C@@H]1C=C(c2cncc(Cl)c2)CN(CCC2CCCC2)C1 [Compound 19, 5′-chloro-1-(2-cyclopentylethyl)-5-methyl-1,2,5,6-tetrahydro-3,3′-bipyridine] | 570 |  |  | > 10000 |  | antagonist | 4310 |  |  | > 10000 | (34.9% |  |  |
| C[C@H]1C=C(c2c[nH]c3ncccc23)CNC1 [compound 39, (S)-3-(5-methyl-1,2,5,6-tetrahydropyridin-3-yl)-1H-pyrrolo[2,3-b]pyridine] | 1810 | 1230 | (26.8% |  |  |  | 520 |  |  |  | (14.0% | 513 |  |
